Results reported in PubChem BioAssay (NCI).
Values joined by “and” are separate entries in the source; they are usually repeats but may differ in a detail not shown here. Equal values may be shown once.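 Compound exposure: 48 hours, 5 concentrations, 96-well plates. Here, GI50 denotes the concentration required for 50% inhibition of growth. TGI: total growth inhibition.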

Columns and labels:
Assay in all cases: NCI-60 cell line screen, 48 h
[1] = system: HOP-62 NSCLC
[2] = system: T-47D breast
[3] = system: OVCAR-5 ovarian
[4] = system: MALME-3M melanoma
[5] = system: UO-31 renal
[6] = system: NCI-H460 lung
[7] = system: M14 melanoma
[8] = system: SF-295 CNS
[9] = system: HS 578T breast
[10] = system: EKVX NSCLC

| Compound | GI50 [1] | TGI [1] | GI50 [2] | TGI [2] | GI50 [3] | TGI [3] | GI50 [4] | TGI [4] | GI50 [5] | TGI [5] | GI50 [6] | TGI [6] | GI50 [7] | TGI [7] | GI50 [8] | TGI [8] | GI50 [9] | TGI [9] | TGI [10] | GI50 [10] |
| --- | --- | --- | --- | --- | --- | --- | --- | --- | --- | --- | --- | --- | --- | --- | --- | --- | --- | --- | --- | --- |
| O=C1NC(=NCCCc2ccccc2)S/C1=C\c1ccc2ncccc2c1 | 5.79 µM | 13.8 µM | 4.73 µM | 12.3 µM | 8.09 µM | > 25 µM | 7.43 µM | 19.3 µM | 4.06 µM | 11.9 µM | 4.08 µM | 11.8 µM | 9.63 µM | > 25 µM | 4.75 µM | > 17.5 µM | 5.11 µM | 16 µM |  |  |
| O=S(=O)(c1cnccc1N1CCN(CCO)CC1)N1CCCC1 |  | > 100 µM |  | > 100 µM |  | > 100 µM |  | > 100 µM |  | > 100 µM |  | > 100 µM |  | > 100 µM |  | > 100 µM |  | > 100 µM | > 100 µM |  |
| C=CC(=O)N1CC2(CC(n3nc(-c4ccc5c(cnn5C)c4)c(-c4c(Cl)c(C)cc5[nH]ncc45)c3C)C2)C1 |  | 19.5 µM | 3.97 µM | 19.3 µM | 4.03 µM | 13.9 µM | 2.44 µM | 5.09 µM | 1.97 µM | 4.68 µM | 3.12 µM | 10.3 µM | 2.88 µM | 11.2 µM | 2.16 µM | 5.43 µM | 5.56 µM | 62.9 µM | 11.1 µM | 3.23 µM |
| COC(=O)[C@H]1CCCN1C(=O)[C@H]1CCCN1C(=O)[C@H](Cc1c[nH]c2ccccc12)NC(=S)Nc1cc(C(F)(F)F)cc(C(F)(F)F)c1 | 8.28 µM | > 100 µM | 3.72 µM | > 100 µM | 2.95 µM | 26.8 µM | 14.9 µM | > 100 µM | 18.5 µM | > 100 µM | 3.46 µM | > 100 µM | 7.15 µM | 64.1 µM | 2.77 µM | 12.9 µM | 6.1 µM | > 100 µM |  |  |
| O=C(CN1C(=O)S/C(=C\C(Cl)=C\c2ccccc2)C1=O)NC1C=CS(=O)(=O)C1 (stereo not drawn) | 2.97 µM | 11.1 µM | 0.917 µM | 8.19 µM | 2.31 µM | 6.13 µM | 1.27 µM | 3.93 µM | 1.37 µM | 2.79 µM | 1.86 µM | 6.36 µM | 1.31 µM | 4.69 µM | 2.32 µM | 5.19 µM | 2.33 µM | 8.33 µM | 6.06 µM | 2.19 µM |
| CN1CCN(CCCOc2cccc3nc(Nc4ccc(Cl)c(C(F)(F)F)c4)ccc23)CC1 | 1.7 µM | 3.32 µM | 1.97 µM | 4.52 µM | 1.85 µM | 3.41 µM | 1.75 µM | 3.45 µM | 1.46 µM | 2.88 µM | 1.72 µM | 3.52 µM | 1.81 µM | 3.48 µM | 1.8 µM | 3.38 µM | 2 µM | 4.66 µM | 3.98 µM | 1.82 µM |
| CCN(CC)Cc1cc2[nH]c3c4ccc(Cl)cc4ncc3c2cc1OC | 5.41 µM and 2.01 µM | 11.7 µM and 9.34 µM | 16.5 µM and 17.4 µM | 31.7 µM and 33.6 µM | 12.4 µM and 14.5 µM | 25.9 µM and 27.5 µM | 1.72 µM and 1.99 µM | 3.33 µM and 3.75 µM | 4.25 µM and 1.59 µM | 8.93 µM and 3.83 µM | 1.99 µM and 2.19 µM | 4.55 µM and 5.11 µM | 1.88 µM | 3.59 µM and 3.4 µM | 4.98 µM and 1.95 µM | 9.67 µM and 4.01 µM | 2.29 µM and 2.54 µM | 7.09 µM and 8.34 µM | 24.9 µM and 24.4 µM | 12.1 µM and 11.8 µM |
| O=C(CC(Cl)=C(Cl)Cl)c1cccc(Cl)c1Cl | 82.1 µM | > 100 µM | 42.5 µM | > 100 µM | > 100 µM | > 100 µM | > 100 µM | > 100 µM | 59.4 µM | > 100 µM | > 100 µM | > 100 µM | > 100 µM | > 100 µM |  |  | > 100 µM | > 100 µM | > 100 µM | 57.7 µM |
| O=[N+]([O-])c1cccc(C2CC(c3ccccc3)=Nc3ccccc3S2)c1 (stereo not drawn) | 37.8 µM | > 100 µM | 16.6 µM | 52.6 µM | 13.9 µM | 28.1 µM | 17.9 µM | 46.1 µM | 9.61 µM | 21.9 µM | 20.5 µM | 48.7 µM | 19.2 µM | 44.6 µM | 25.1 µM | 77.7 µM | 20 µM | > 100 µM |  |  |
| COc1cc(-c2nn(-c3cccc(NC(=O)c4ccc(Cl)c(C(F)(F)F)c4)c3)cc2-c2ccncc2)ccc1Cl | 6.5 µM | > 32.5 µM | 1.3 µM | > 32.5 µM | > 28.4 µM | > 32.5 µM | 0.922 µM | 6.68 µM | 0.551 µM | > 32.5 µM | 2.21 µM | > 32.5 µM | 2.31 µM | > 32.5 µM | 1.08 µM | 8.19 µM | 1.78 µM | > 29.5 µM |  |  |
| Cn1cc(C2=C(c3cn(CCCCCSC(=N)N)c4ccccc34)C(=O)NC2=O)c2ccccc21 | 3.96 µM | 7.59 µM | 3.46 µM | 9.63 µM | 4.48 µM | 8.26 µM | 4.25 µM | 8.08 µM | 3.62 µM | 7.29 µM | 3.73 µM | 7.75 µM | 3.23 µM | 6.87 µM | 1.76 µM | 5.38 µM | 2.24 µM | 11.1 µM |  |  |
| CCn1c(-c2nonc2N)nc2cncc(C(=O)N3CC[C@H](N)C3)c21 | 7.38 µM | > 25 µM | 24.9 µM | > 25 µM | > 25 µM | > 25 µM | > 25 µM | > 25 µM | 0.269 µM | > 8.77 µM | 17.7 µM | > 25 µM | 24.6 µM | > 25 µM | 5.05 µM | > 25 µM | 0.559 µM | > 25 µM |  |  |
| COc1cc2c(=O)[nH]c3cc([N+](=O)[O-])ccc3c2cc1[N+](=O)[O-] | 7.38 µM | 36.2 µM | 3.52 µM | > 100 µM | 63.4 µM | > 100 µM | 9.91 µM | > 100 µM | 2.03 µM | > 100 µM |  |  | 7 µM | > 100 µM | 6.27 µM | > 100 µM | 23.3 µM | > 100 µM | > 100 µM | 7.08 µM |
